The test system of one test is KM mice. Nature of the test: animal or person. The class given is in vivo. Particulars: for 2ED50 duration / 2ED50 recovery time / Quality of recovery: KM mice; for 2ED50 duration / 2ED50 recovery time: single tail vein injection at 2×ED50; for 2ED50 duration: time from disappearance to recovery of righting reflex; for 2ED50 recovery time: time from recovery of righting reflex to free crawling; for Quality of recovery: tail vein injection; for ED50: Mus musculus, KM mice (male, 18-22 g), injection via the tail vein, disappearance of righting reflex, read-out: ED50; for duration and recovery time compared with remimazolam / effective dose compared with remimazolam: mice, tail vein, in words.

A further test relates to SD rats. Briefly: animal or person. In kind it is in vivo. Particulars: for ED50: Rattus norvegicus, SD rats (male, 220-300 g), injection via the tail vein, disappearance of righting reflex, read-out: ED50; for 2ED50 duration / 2ED50 recovery time / Quality of recovery: SD rats; for 2ED50 duration / 2ED50 recovery time: single tail vein injection at 2×ED50; for 2ED50 duration: time from disappearance to recovery of righting reflex; for 2ED50 recovery time: time from recovery of righting reflex to free crawling; for Quality of recovery: tail vein injection; for duration and recovery time compared with remimazolam / effective dose compared with remimazolam: rats, tail vein, in words.

Here are results for 13 compounds from patent publication US12473291B2 (priority 2019, dated 2025).

Usually ED50 stands for the dose that gives a 50% effect, or the effect in half of the subjects. For the compound `COC(=O)OCOC(=O)CC[C@@H]1N=C(c2ccccn2)c2cc(Br)c(Br)cc2-n2c(C)cnc21` [Example 8], in the test on KM mice, the 2ED50 duration is on record as 5.23 min, the 2ED50 recovery time was 2.18 min, the Quality of recovery entry is recorded as “+++ (“+++” means 3-5 min)” and the median effective dose (ED50) came to 27.5 mg/kg. Also, in the test on SD rats, the ED50 is 5.8 mg/kg, the “2ED50 duration” value is given as 5.05 min, the 2ED50 recovery time was 2.18 min and the Quality of recovery entry is given as “++++ (“++++” means 5-10 min)”.
In the case of `CCOC(=O)OCOC(=O)CC[C@@H]1N=C(c2ccccn2)c2cc(Br)c(Br)cc2-n2c(C)cnc21` [Example 9], in the test on KM mice, the 2ED50 duration amounted to 5.48 min, the 2ED50 recovery time stood at 2.07 min, the Quality of recovery entry was “++++ (“++++” means 5-10 min)” and the ED50 worked out at 31.6 mg/kg. Besides, in the test on SD rats, the 50% effective dose (ED50) is 5.6 mg/kg, the “2ED50 duration” value stood at 4.12 min, the 2ED50 recovery time is 2.57 min and the Quality of recovery entry is listed as “+++ (“+++” means 3-5 min)”.
As to `Cc1cnc2n1-c1cc(Br)c(Br)cc1C(c1ccccn1)=N[C@H]2CCC(=O)OCOC(=O)OC(C)C` [Example 10], in the test on KM mice, the 2ED50 duration is reported as 5.12 min, the 2ED50 recovery time turned out to be 2.06 min, the Quality of recovery result is “+++ (“+++” means 3-5 min)” and the ED50 was found to be 28.3 mg/kg. Moreover, in the test with SD rats, the ED50 came out at 5.8 mg/kg, the “2ED50 duration” value is 5.31 min, the 2ED50 recovery time is reported as 2.06 min and the Quality of recovery entry was “++ (“++” means 1-3 min)”.
On to `Cc1cnc2n1-c1cc(Br)c(Br)cc1C(c1ccccn1)=N[C@H]2CCC(=O)OCOC(=O)OC(C)(C)C` [Example 11], for which, in the test with KM mice, the 2ED50 duration is listed as 5.31 min, the 2ED50 recovery time is 2.13 min, the Quality of recovery entry is reported as “++ (“++” means 1-3 min)” and the ED50 stood at 22.4 mg/kg. Besides, in the test with SD rats, the median effective dose (ED50) amounted to 5.9 mg/kg, the “2ED50 duration” value stood at 5.03 min, the 2ED50 recovery time is given as 2.43 min and the Quality of recovery entry is recorded as “+++ (“+++” means 3-5 min)”.
Consider `CCC(CC)OC(=O)OCOC(=O)CC[C@@H]1N=C(c2ccccn2)c2cc(Br)c(Br)cc2-n2c(C)cnc21` [Example 12], for which, in the test on KM mice, the 2ED50 duration is 5.32 min, the 2ED50 recovery time is recorded as 2.04 min, the Quality of recovery result is on record as “+++ (“+++” means 3-5 min)” and the ED50 worked out at 31.3 mg/kg. Besides, in the test with SD rats, the ED50 turned out to be 5.7 mg/kg, the “2ED50 duration” value is recorded as 5.24 min, the 2ED50 recovery time came to 2.04 min and the Quality of recovery result is “++ (“++” means 1-3 min)”.
In the case of `Cc1cnc2n1-c1cc(Br)c(Br)cc1C(c1ccccn1)=N[C@H]2CCC(=O)OCOC(=O)OC(C)C(C)C` (some centres unmarked) [Example 13], in the test on KM mice, the 2ED50 duration turned out to be 5.22 min, the 2ED50 recovery time is reported as 2.34 min, the Quality of recovery result is reported as “+++ (“+++” means 3-5 min)” and the ED50 amounted to 27 mg/kg. Moreover, in the test on SD rats, the ED50 was 5.3 mg/kg, the “2ED50 duration” value is reported as 4.02 min, the 2ED50 recovery time was determined as 2.45 min and the Quality of recovery entry is reported as “+++ (“+++” means 3-5 min)”.
On to `Cc1cnc2n1-c1cc(Br)c(Br)cc1C(c1ccccn1)=N[C@H]2CCC(=O)OCOC(=O)OC(C(C)C)C(C)C` [Example 14], for which, in the test with KM mice, the 2ED50 duration is on record as 6.42 min, the 2ED50 recovery time worked out at 2.29 min, the Quality of recovery entry is reported as “+++ (“+++” means 3-5 min)” and the 50% effective dose (ED50) turned out to be 32 mg/kg. Besides, in the test with SD rats, the ED50 came to 6.9 mg/kg, the “2ED50 duration” value is reported as 5.06 min, the 2ED50 recovery time is on record as 2.39 min and the Quality of recovery entry is listed as “++ (“++” means 1-3 min)”.
In the case of `COC(=O)OC(C)OC(=O)CC[C@@H]1N=C(c2ccccn2)c2cc(Br)c(Br)cc2-n2c(C)cnc21` (some centres unmarked) [Example 15], in the test on KM mice, the 2ED50 duration was found to be 1.43 min; the 2ED50 recovery time is 1.01 min; the ED50 worked out at 18.3 mg/kg; the “duration and recovery time compared with remimazolam” value is on record as “significantly shorter”. Further, the “effective dose compared with remimazolam” value with KM mice is on record as “significantly lower”. In addition, in the test on SD rats, the median effective dose (ED50) is 1.5 mg/kg, the “2ED50 duration” value is recorded as 1.29 min, the 2ED50 recovery time is 1.01 min and the Quality of recovery entry is “+ (“+” means <1 min)”. Moreover, in the test on SD rats, the “duration and recovery time compared with remimazolam” value is recorded as “significantly shorter”; the “effective dose compared with remimazolam” value is “significantly lower”.
In the case of `CCOC(=O)OC(C)OC(=O)CC[C@@H]1N=C(c2ccccn2)c2cc(Br)c(Br)cc2-n2c(C)cnc21` (some centres unmarked) [Example 16], in the test with KM mice, the 2ED50 duration turned out to be 1.57 min; the 2ED50 recovery time is listed as 1.23 min; the median effective dose (ED50) stood at 15.7 mg/kg; the “duration and recovery time compared with remimazolam” value is recorded as “significantly shorter”. Besides, the “effective dose compared with remimazolam” value with KM mice is reported as “significantly lower”. In the test on SD rats, the ED50 stood at 3.4 mg/kg, the “2ED50 duration” value amounted to 0.57 min, the 2ED50 recovery time came out at 0.53 min and the Quality of recovery result was “+ (“+” means <1 min)”. Besides, in the test on SD rats, the “duration and recovery time compared with remimazolam” value was “significantly shorter”; the “effective dose compared with remimazolam” value is given as “significantly lower”.
As for `Cc1cnc2n1-c1cc(Br)c(Br)cc1C(c1ccccn1)=N[C@H]2CCC(=O)OC(C)OC(=O)OC(C)C` (some centres unmarked) [Example 17], in the test with KM mice, the 2ED50 duration is 4.39 min, the 2ED50 recovery time is recorded as 2.53 min, the Quality of recovery result is reported as “++ (“++” means 1-3 min)” and the 50% effective dose (ED50) came to 29.2 mg/kg. For the same compound, in the test on SD rats, the ED50 was found to be 4.3 mg/kg, the “2ED50 duration” value is listed as 4.39 min, the 2ED50 recovery time is 2.43 min and the Quality of recovery entry is reported as “++ (“++” means 1-3 min)”.
As for `COC(=O)C1(OC(=O)CC[C@@H]2N=C(c3ccccn3)c3cc(Br)c(Br)cc3-n3c(C)cnc32)CC1` [Example 18], in the test on KM mice, the 2ED50 duration is listed as 5.09 min, the 2ED50 recovery time turned out to be 2.49 min, the Quality of recovery result was “+++ (“+++” means 3-5 min)” and the 50% effective dose (ED50) stood at 30.1 mg/kg. In the test on SD rats, the ED50 was 4.8 mg/kg, the “2ED50 duration” value turned out to be 4.49 min, the 2ED50 recovery time turned out to be 2.58 min and the Quality of recovery result is on record as “+++ (“+++” means 3-5 min)”.
In the case of `CCOC(=O)C1(OC(=O)CC[C@@H]2N=C(c3ccccn3)c3cc(Br)c(Br)cc3-n3c(C)cnc32)CC1` [Example 19], in the test with KM mice, the 2ED50 duration came to 6.07 min, the 2ED50 recovery time was 2.09 min, the Quality of recovery result is listed as “++++ (“++++” means 5-10 min)” and the 50% effective dose (ED50) worked out at 23.2 mg/kg. In the test on SD rats, the ED50 stood at 5.6 mg/kg, the “2ED50 duration” value was found to be 4.07 min, the 2ED50 recovery time is on record as 2.12 min and the Quality of recovery entry is reported as “+++ (“+++” means 3-5 min)”.
Consider `COC(=O)COC(=O)CC[C@@H]1N=C(c2ccccn2)c2cc(Br)c(Br)cc2-n2c(C)cnc21` [Example 20], for which, in the test with KM mice, the 2ED50 duration is 4.47 min, the 2ED50 recovery time amounted to 2.43 min, the Quality of recovery result is recorded as “+++ (“+++” means 3-5 min)” and the ED50 came to 31.4 mg/kg. For the same compound, in the test with SD rats, the median effective dose (ED50) amounted to 4.7 mg/kg, the “2ED50 duration” value turned out to be 3.47 min, the 2ED50 recovery time worked out at 2.49 min and the Quality of recovery result was “++ (“++” means 1-3 min)”.
